Type in all cases: cell-based
The target of one assay is T1, PYR1 K59R A160N (Arabidopsis thaliana, UniProt O49686, A160N/K59R).
T1 construct: expressed in transfected cells; host or cells: S. cerevisiae Y190
In words: Y2H Pocket Library Screen (HAB1, X-gal). Put shortly: (§1)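 Mutant PYR1 variants are screened in yeast two-hybrid against HAB1, with 100 μM compound in –Leu/–Trp dextrose agar; responsiveness is judged by X-gal staining after 2 days at 30° C.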

The next assay deals with T2, PYR1 K59R E141Q (Arabidopsis thaliana, UniProt O49686, E141Q/K59R).
T2 construct: expressed in transfected cells; host or cells: S. cerevisiae Y190 two-hybrid reporter strain
Briefly: Y2H Pocket Library Screen (HAB1, X-gal). Put shortly: as §1

A further assay concerns the target T3, PYR1 K59R E94D (Arabidopsis thaliana, UniProt O49686, E94D/K59R).
T3 construct: expressed in transfected cells; host or cells: S. cerevisiae Y190 yeast two-hybrid reporter strain
In words: Y2H Pocket Library Screen (HAB1, X-gal). Put shortly:
as §1

A further assay has as its target T4, PYR1 K59R H115N (Arabidopsis thaliana, UniProt O49686, H115N/K59R).
T4 construct: expressed in transfected cells; host or cells: S. cerevisiae Y190 two-hybrid reporter strain
In words: Y2H Pocket Library Screen (HAB1, X-gal). Summed up:
as §1

In another assay the target is T5, PYR1 K59R M158G (Arabidopsis thaliana, UniProt O49686, K59R/M158G).
T5 construct: expressed in transfected cells; host or cells: S. cerevisiae Y190 two-hybrid reporter strain
Briefly: Y2H Pocket Library Screen (HAB1, X-gal). Put shortly:
as §1

Another assay concerns the target T6, PYR1 K59R M158L (Arabidopsis thaliana, UniProt O49686, K59R/M158L).
T6 construct: expressed in transfected cells; host or cells: S. cerevisiae Y190 two-hybrid reporter strain
In words: Y2H Pocket Library Screen (HAB1, X-gal). Summed up: as §1

The target in a further assay is T7, PYR1 K59R M158S (Arabidopsis thaliana, UniProt O49686, K59R/M158S).
T7 construct: expressed in transfected cells; host or cells: S. cerevisiae Y190 two-hybrid reporter strain
Briefly: Y2H Pocket Library Screen (HAB1, X-gal). Put shortly:
as §1

The target of another assay is T8, PYR1 K59R M158V (Arabidopsis thaliana, UniProt O49686, K59R/M158V).
T8 construct: expressed in transfected cells; host or cells: S. cerevisiae Y190 two-hybrid reporter strain
In words: Y2H Pocket Library Screen (HAB1, X-gal). Summed up:
as §1

The target of the next assay is T9, PYR1 K59R N167G (Arabidopsis thaliana, UniProt O49686, K59R/N167G).
T9 construct: expressed in transfected cells; host or cells: S. cerevisiae Y190 two-hybrid reporter strain
Briefly: Y2H Pocket Library Screen (HAB1, X-gal). Put shortly: as §1

Another assay deals with T10, PYR1 K59R T162Y (Arabidopsis thaliana, UniProt O49686, K59R/T162Y).
T10 construct: expressed in transfected cells; host or cells: S. cerevisiae Y190
In words: Y2H Pocket Library Screen (HAB1, X-gal). Put shortly: as §1

The target in a further assay is T11, PYR1 K59R V164A (Arabidopsis thaliana, UniProt O49686, K59R/V164A).
T11 construct: expressed in transfected cells; host or cells: S. cerevisiae Y190
Briefly: Y2H Pocket Library Screen (HAB1, X-gal). Put shortly:
as §1

Another assay has as its target T12, PYR1 K59R V164M (Arabidopsis thaliana, UniProt O49686, K59R/V164M).
T12 construct: expressed in transfected cells; host or cells: S. cerevisiae Y190
Briefly: Y2H Pocket Library Screen (HAB1, X-gal). Summed up:
as §1

For a further assay, the target named is T13, PYR1 K59R V164N (Arabidopsis thaliana, UniProt O49686, K59R/V164N).
T13 construct: expressed in transfected cells; host or cells: S. cerevisiae Y190 two-hybrid reporter strain
In words: Y2H Pocket Library Screen (HAB1, X-gal). Summed up: as §1

Another assay addresses T14, PYR1 K59R V164S (Arabidopsis thaliana, UniProt O49686, K59R/V164S).
T14 construct: expressed in transfected cells; host or cells: S. cerevisiae Y190 two-hybrid reporter strain
Briefly: Y2H Pocket Library Screen (HAB1, X-gal). Summed up: as §1

The next assay deals with T15, PYR1 K59R F108T (Arabidopsis thaliana, UniProt O49686, F108T/K59R).
T15 construct: expressed in transfected cells; host or cells: S. cerevisiae Y190 yeast two-hybrid reporter strain
In words: Y2H Pocket Library Screen (HAB1, X-gal). Summed up:
as §1

The next assay concerns the target T16, PYR1 K59R F108A S122G (Arabidopsis thaliana, UniProt O49686, F108A/K59R/S122G).
T16 construct: expressed in transfected cells; host or cells: S. cerevisiae Y190 two-hybrid reporter strain
Briefly: Y2H Combinatorial Mutagenesis Screen I (HAB1, X-gal). The source says:
This screening approach yielded mutants at ligand contacting residues that alter sensitivity to specific ligands. We reasoned that receptor sensitivity could be improved by systematically constructing combinations of the best mutant variants identified in the first round of screening. To test this, we constructed mutant combinations using the strongest mutations identified for mandipropamid, benzothiadiazole, benoxacor or fludioxonil sensitivity. The mutations selected for combinatorial mutagenesis are listed in bold type in Table 1; The mutant combinations were constructed using the QuickChange Lightning Multi Site-Directed PCR Mutagenesis kit (Agilent, USA) using pBD-PYR1^K59R template DNA and mutagenic primers, essentially as previously described (Mosquna et al., 2011). The mutant combinations were sequence validated, introduced into the pACT-HAB1 Y190 reporter strain and then tested for responsiveness to a range of compound concentrations (100, 50, 25, 10, 1, 0.2, 0.1 or 0 μM each test compound). These efforts yielded double mutant receptor variants with improved sensitivity for the 4 compound/receptor pairs examined (see entries labeled “Combinatorial Mutagenesis Screen I” in Table 1).
The preceding efforts identified PYR1^K59R,F108A,S122G, which is responsive to mandipropamid concentrations as low as 1 μM. […]

T8 sequence (O49686 whole entry K59R/M158V): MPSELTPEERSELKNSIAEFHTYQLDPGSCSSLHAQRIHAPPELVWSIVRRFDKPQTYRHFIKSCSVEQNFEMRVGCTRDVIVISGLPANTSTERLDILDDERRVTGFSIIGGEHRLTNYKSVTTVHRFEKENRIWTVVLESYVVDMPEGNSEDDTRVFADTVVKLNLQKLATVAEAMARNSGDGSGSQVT
T8 sequence (Q9CAJ0 23-511, further chain): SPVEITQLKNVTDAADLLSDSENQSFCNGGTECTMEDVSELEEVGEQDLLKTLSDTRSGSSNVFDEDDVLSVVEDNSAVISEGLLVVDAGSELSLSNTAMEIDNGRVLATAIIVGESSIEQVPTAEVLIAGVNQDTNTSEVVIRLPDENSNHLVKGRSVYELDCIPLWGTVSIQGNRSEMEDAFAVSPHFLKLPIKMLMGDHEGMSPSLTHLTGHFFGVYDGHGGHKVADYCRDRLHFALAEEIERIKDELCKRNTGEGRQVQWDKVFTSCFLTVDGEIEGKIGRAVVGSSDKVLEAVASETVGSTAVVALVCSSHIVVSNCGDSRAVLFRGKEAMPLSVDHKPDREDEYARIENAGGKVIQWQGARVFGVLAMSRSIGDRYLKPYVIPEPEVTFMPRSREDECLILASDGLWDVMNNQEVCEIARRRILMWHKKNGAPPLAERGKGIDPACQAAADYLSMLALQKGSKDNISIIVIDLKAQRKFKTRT
T1 sequence (O49686 whole entry K59R/A160N): as the sequence (O49686 whole entry K59R/M158V) above, with V158M, A160N counted along it
T1 sequence (Q9CAJ0 23-511 partner): as the sequence (Q9CAJ0 23-511, further chain) above
T5 sequence (O49686 whole entry K59R/M158G): as the sequence (O49686 whole entry K59R/M158V) above, with V158G counted along it
T5 sequence (Q9CAJ0 23-511 partner): as the sequence (Q9CAJ0 23-511, further chain) above
T15 sequence (O49686 whole entry K59R/F108T): as the sequence (O49686 whole entry K59R/M158V) above, with F108T, V158M counted along it
T15 sequence (Q9CAJ0 23-511 partner): as the sequence (Q9CAJ0 23-511, further chain) above
T3 sequence (O49686 whole entry K59R/E94D): as the sequence (O49686 whole entry K59R/M158V) above, with E94D, V158M counted along it
T3 sequence (Q9CAJ0 23-511 partner): as the sequence (Q9CAJ0 23-511, further chain) above
T7 sequence (O49686 whole entry K59R/M158S): as the sequence (O49686 whole entry K59R/M158V) above, with V158S counted along it
T7 sequence (Q9CAJ0 23-511 partner): as the sequence (Q9CAJ0 23-511, further chain) above
T11 sequence (O49686 whole entry K59R/V164A): as the sequence (O49686 whole entry K59R/M158V) above, with V158M, V164A counted along it
T11 sequence (Q9CAJ0 23-511 partner): as the sequence (Q9CAJ0 23-511, further chain) above
T2 sequence (O49686 whole entry K59R/E141Q): as the sequence (O49686 whole entry K59R/M158V) above, with E141Q, V158M counted along it
T2 sequence (Q9CAJ0 23-511 partner): as the sequence (Q9CAJ0 23-511, further chain) above
T12 sequence (O49686 whole entry K59R/V164M): as the sequence (O49686 whole entry K59R/M158V) above, with V158M, V164M counted along it
T12 sequence (Q9CAJ0 23-511 partner): as the sequence (Q9CAJ0 23-511, further chain) above
T6 sequence (O49686 whole entry K59R/M158L): as the sequence (O49686 whole entry K59R/M158V) above, with V158L counted along it
T6 sequence (Q9CAJ0 23-511 partner): as the sequence (Q9CAJ0 23-511, further chain) above
T13 sequence (O49686 whole entry K59R/V164N): as the sequence (O49686 whole entry K59R/M158V) above, with V158M, V164N counted along it
T13 sequence (Q9CAJ0 23-511 partner): as the sequence (Q9CAJ0 23-511, further chain) above
T9 sequence (O49686 whole entry K59R/N167G): as the sequence (O49686 whole entry K59R/M158V) above, with V158M, N167G counted along it
T9 sequence (Q9CAJ0 23-511 partner): as the sequence (Q9CAJ0 23-511, further chain) above
T16 sequence (Q9CAJ0 23-511): as the sequence (Q9CAJ0 23-511, further chain) above
T16 sequence (O49686 whole entry K59R/F108A/S122G): as the sequence (O49686 whole entry K59R/M158V) above, with F108A, S122G, V158M counted along it
T10 sequence (Q9CAJ0 23-511): as the sequence (Q9CAJ0 23-511, further chain) above
T10 sequence (O49686 whole entry K59R/T162Y): as the sequence (O49686 whole entry K59R/M158V) above, with V158M, T162Y counted along it
T14 sequence (O49686 whole entry K59R/V164S): as the sequence (O49686 whole entry K59R/M158V) above, with V158M, V164S counted along it
T14 sequence (Q9CAJ0 23-511 partner): as the sequence (Q9CAJ0 23-511, further chain) above
T4 sequence (O49686 whole entry K59R/H115N): as the sequence (O49686 whole entry K59R/M158V) above, with H115N, V158M counted along it
T4 sequence (Q9CAJ0 23-511 partner): as the sequence (Q9CAJ0 23-511, further chain) above

As for `N#Cc1c(Cl)cccc1Cl` [Dichlobenil, dichlobenil], the Threshold at PYR1 K59R A160N, on PYR1 K59R E141Q, on PYR1 K59R E94D, on PYR1 K59R H115N, on PYR1 K59R M158G and at PYR1 K59R M158L was 100 µM in each case. Further, the Threshold on PYR1 K59R M158S, at PYR1 K59R M158V, at PYR1 K59R N167G, on PYR1 K59R T162Y, at PYR1 K59R V164A and on PYR1 K59R V164M was 100 µM in each case. Moreover, the Threshold on PYR1 K59R V164N and at PYR1 K59R V164S was 100 µM throughout.

Consider `C#CCOc1ccc(CCNC(=O)C(OCC#C)c2ccc(Cl)cc2)cc1OC` (stereo not shown) [Mandipropamid, mandipropamid], for which the figures for the Threshold on PYR1 K59R F108T and at PYR1 K59R F108A S122G were 100 µM and 1 µM, respectively.

(Values after patent US9738902B2, “Modified PYR/PYL receptors activated by ligands” (priority 2013, dated 2017).)
